Target: T1, human P2X2/3 receptor (Homo sapiens, UniProt P56373+Q9UBL9)
T1 construct: expressed in transfected cells; host or cells: CHO-K1
T1 sequence (P56373 1-397): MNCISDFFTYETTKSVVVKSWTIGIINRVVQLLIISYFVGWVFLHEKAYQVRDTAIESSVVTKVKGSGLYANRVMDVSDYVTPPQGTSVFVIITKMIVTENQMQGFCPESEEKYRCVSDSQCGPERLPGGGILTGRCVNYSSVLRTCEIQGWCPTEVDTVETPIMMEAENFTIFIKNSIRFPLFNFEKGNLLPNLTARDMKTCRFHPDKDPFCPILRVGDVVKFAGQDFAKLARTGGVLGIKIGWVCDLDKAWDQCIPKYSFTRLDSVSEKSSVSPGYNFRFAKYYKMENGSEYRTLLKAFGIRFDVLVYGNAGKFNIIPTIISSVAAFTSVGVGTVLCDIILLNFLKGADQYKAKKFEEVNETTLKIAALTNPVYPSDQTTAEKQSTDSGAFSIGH
T1 sequence (Q9UBL9 1-471): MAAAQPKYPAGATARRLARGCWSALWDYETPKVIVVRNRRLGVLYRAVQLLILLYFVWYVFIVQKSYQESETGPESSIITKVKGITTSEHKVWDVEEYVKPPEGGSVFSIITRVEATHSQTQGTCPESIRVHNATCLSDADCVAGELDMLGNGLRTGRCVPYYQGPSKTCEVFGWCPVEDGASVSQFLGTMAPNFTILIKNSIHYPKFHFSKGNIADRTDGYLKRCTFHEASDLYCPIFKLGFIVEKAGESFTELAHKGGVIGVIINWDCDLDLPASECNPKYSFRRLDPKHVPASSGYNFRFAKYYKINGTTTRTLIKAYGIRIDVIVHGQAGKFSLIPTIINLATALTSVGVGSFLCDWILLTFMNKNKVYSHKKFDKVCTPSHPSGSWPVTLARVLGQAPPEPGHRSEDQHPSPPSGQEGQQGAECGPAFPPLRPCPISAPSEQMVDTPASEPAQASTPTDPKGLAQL
Assay: Calcium fluorescence measurement: human P2X2/3 receptor activity inhibition (CHO-K1 cells, Fluo-8 NoWash, […])
Format: cell-based
Protocol: Determination of human P2X2/3 receptor activity inhibition
The assay for the human P2RX2/X3 has been evaluated by the screening instrumentation using the […] as reader and the FLUO8-NoWash dye as fluorescent readout for calcium detection.
CHO-K1 cells recombinantly expressing the human P2RX2/X3 channel are maintained in DMEM F-12 (1:1) mixture (LONZA cat. n°: BE04-687F/U1) supplemented with 5 mL of 100 mM Sodium Pyruvate (LONZA cat. n° BE13-115E), 25 mL of 7.5% Sodium Bicarbonate (LONZA cat. n° BE17-613E), 6.5 mL of 1M Hepes (LONZA cat. n° BE17-737E), 5 mL of 100X Penicillin/Streptomycin mixture (LONZA cat. n° DE17-602E) and 50 mL of Fetal Bovine Serum (Sigma cat. n° F7524), 5 µg/mL Puromycin dihydrochloride (Sigma cat. n° P9620) and 1 mg/ml G418 disulfate salt (Sigma cat. n° G8168).
Cells were seeded into black-walled clear bottom 384 Multiwell plates at a density of 10.000 cells/well in complete medium. After 24 h the culture medium was replaced with 20 µL/well of Fluo-8 NoWash calcium sensitive dye (AAT Bioquest cat. n° 36316) diluted in Tyrode's buffer (Standard Tyrode's buffer: in house solution, 130 mM NaCl, 5 mM KCl, 2 mM CaCl2, 5 mM NaHCO3, 1 mM MgCl2, 20 mM HEPES, pH 7.4).
The plates were incubated for 1 hours at 37°C and injected with 10 µL/well of test compounds at 3X concentration in Tyrode's buffer with the […]. After 5 minutes a second injection of 15 µL/well of 10µM α,β-Met-ATP in Tyrode's buffer (α,β-Met-ATP: from Tocris cat. n° 3209) was performed and the signal of the emitted fluorescence was recorded by […] (Molecular Devices).
The selectivity is expressed as the ratio of IC50 of P2X2/3/ P2X3 receptors. Table 8: Human P2X3 and h-P2X2/3 receptor antagonist activity for selected compounds of the invention.

IC50 (CHO-K1 cells expressing human P2RX2/X3 channel, 10µM α,β-Met-ATP, read-out: h-P2X2/3 IC50): 18.8 µM | Selectivity (ratio of IC50 of P2X2/3/ P2X3 receptors): 510
SMILES: CC(C)C1C(=O)N=C2c3ncc(N4CCOCC4)cc3N(Cc3ccc(Cl)cc3)C(=O)N21 (racemic) [Example 22, 6-[(4-Chlorophenyl)methyl]-8-(morpholin-4-yl)-3-(propan-2-yl)imidazo[1,2-c]pyrido[2,3-e]pyrimidine-2,5(3H,6H)-dione]
